Measurements published in publication PMC8428568, “Discovery of re-purposed drugs that slow SARS-CoV-2 replication in human cells” (PLoS Pathogens, 2021).
Where a name gives a salt, the structure may show the parent alone. Read-outs that look alike come from different tables or passages of the source. *1 amine or outer side, *2 acyl side, *3 side chain or, on linkers, in order; H or OH if unused. Where a SMILES comes first, the peptide text is derived from it. Bridges are numbered along the chain shown (N, C = ends). [ ]: non-standard residue; d: D form. The star is where a group is joined. pTerphenylCO(4''-OnC5H11) = CCCCCOc1ccc(-c2ccc(-c3ccc(C(=O)*)cc3)cc2)cc1; Orn(4R-OH,5R-OH) = O=C([C@H](C[C@@H](O)[C@@H](O)N[*:3])N[*:1])[*:2]; hTyr(3S-OH,4S-OH) = N[C@H](C(=O)O)[C@H](O)[C@@H](O)c1ccc(O)cc1; Pro(3S-OH,4S-Me) = C[C@H]1CN[C@H](C(=O)O)[C@H]1O; Hyp = O=C(O)[C@@H]1C[C@@H](O)CN1

How the values were obtained:
[1] = tested on: SARS-CoV-2-ΔOrf7a-NLuc virus; assay: microbe, parasite or virus in culture; format: cell-based; details: for activity at 10 µM: Severe acute respiratory syndrome coronavirus 2, Vero, 72 h, read-out: Mean relative luminescence (n=4)
HUH7 cells = details: for toxic effects on cells: HUH7 cells screen
[2] = tested on: SARS-CoV-2-ΔOrf7a-NLuc virus; assay: microbe, parasite or virus in culture; format: cell-based
recombinant NLuc = format: biochemical
[3] = Vero cells, 10 μM, 1 = DMSO-treated infected cells
[4] = […], 1 = untreated, 0 = total inhibition
[5] = Vero screen, […], relative luminescence
[6] = HUH7 screen, […], relative luminescence
[7] = recombinant NLuc activity relative to DMSO
[8] = recombinant NLuc, first read column
[9] = recombinant NLuc, fourth read column
[10] = recombinant NLuc, third read column

SMILES | PrestoBlue relative viability (Vero cells; [3]) | PrestoBlue relative viability (Vero cells; Vero screen) | activity at 10 µM [1, 4] | Mean relative luminescence (n=4) [1, 5] | PrestoBlue relative viability (HUH7 cells; HUH7 screen) | Mean relative luminescence (n=4) [2, 6] | Relative Recombinant NLUC (recombinant NLuc; [7]) | Reads Counts per second (read 1) (recombinant NLuc; [8]) | Reads Counts per second (read 4) (recombinant NLuc; [9]) | Reads Counts per second (read 3) (recombinant NLuc; [10]) | % activity in Vero 100PFU screen [1] | also measured
CCOC(=O)C1=C(COCCN)NC(C)=C(C(=O)OC)C1c1ccccc1Cl (stereo not shown) [Amlodipine Besylate] | 1.385 | 1.385 | 12.4% | 0.124 | 0.6859 | 0.03381 |  |  |  |  |  | 
COc1cccc2c1C(=O)c1c(O)c3c(c(O)c1C2=O)C[C@@](O)(C(C)=O)C[C@@H]3O[C@H]1C[C@H](N)[C@H](O)[C@H](C)O1 [Daunorubicin HCl] | 0.6965 | 0.6965 | 2.1% | 0.02101 | 0.5186 | 0.006058 | 0.8615 | 319222 Counts per second | 328432 Counts per second | 327409 Counts per second | 5% | 
CC[C@H]1OC(=O)[C@H](C)[C@@H](O[C@H]2C[C@@](C)(OC)[C@@H](O)[C@H](C)O2)[C@H](C)[C@@H](O[C@@H]2O[C@H](C)C[C@H](N(C)C)[C@H]2O)[C@](C)(O)C[C@@H](C)CN(C)[C@H](C)[C@@H](O)[C@]1(C)O [azithromycin] |  |  |  |  |  |  |  |  |  |  |  | toxic effects on cells (HUH7 cells): toxic effects on cells; effect on virus replication [2]: did show some effects
OCCOc1ccc(/C(=C(/CCCl)c2ccccc2)c2ccccc2)cc1 [Ospemifene] |  |  |  |  |  |  |  |  |  |  | 4% | Reads Counts per second (read 1) (recombinant NLuc): 356755 Counts per second; Reads Counts per second (read 3) (recombinant NLuc): 358779 Counts per second; Reads Counts per second (read 4) (recombinant NLuc): 352991 Counts per second; Relative Recombinant NLUC (recombinant NLuc): 0.9407; PrestoBlue relative viability (Vero cells; African green monkey): 0.6863; activity at 10 µM [1]: 1.57%; PrestoBlue relative viability (HUH7 cells; human): 1.203; Mean relative luminescence (n=4) [2]: 0.1449
Cl.Cl.Fc1ccc(C(c2ccc(F)cc2)N2CCN(C/C=C/c3ccccc3)CC2)cc1 [Flunarizine 2HCl] | 2.629 | 2.629 |  | 0.1133 | 0.9689 | 0.1091 |  |  |  |  |  | Mean relative luminescence (n=4) [1, 4]: 0.1133
COC(=O)C1=C(C)NC(C)=C(C(=O)OC(C)C)C1c1cccc2nonc12 (stereo not shown) [Isradipine (Dynacirc), Isradipine] | 0.6155 | 0.6155 | 3.92% | 0.03922 | 0.6762 | 0.001355 | 0.04959 | 19176 Counts per second | 18431 Counts per second | 18561 Counts per second | 6% | 
CCOC(=O)C1=C(C)NC(C)=C(C(=O)OCC)C1c1ccccc1/C=C/C(=O)OC(C)(C)C [Lacidipine] | 0.86 | 0.86 | 0.0439% | 0.0004392 | 0.9247 | 0.02662 | 0.1601 | 61246 Counts per second | 59492 Counts per second | 60310 Counts per second | 1.49% | 
Cc1cccc(C)c1OCC(=O)N[C@@H](Cc1ccccc1)[C@@H](O)C[C@H](Cc1ccccc1)NC(=O)[C@H](C(C)C)N1CCCNC1=O [Lopinavir] |  |  |  |  |  |  |  |  |  |  |  | effect on virus replication [1]: failed to halt replication of SARS-CoV-2; effect on virus replication [2]: failed to halt replication of SARS-CoV-2
C=C1CC[C@H](O)C/C1=C/C=C1\CCC[C@]2(C)[C@@H]([C@H](C)/C=C/[C@H](C)C(C)C)CC[C@@H]12 [vitamin D2] |  |  |  |  |  |  |  |  |  |  |  | effect on virus replication [1]: also reduced virus replication but did not meet all criteria; effect on virus replication [2]: also reduced virus replication but did not meet all criteria
CCN(CCO)CCCC(C)Nc1ccnc2cc(Cl)ccc12 (stereo not shown) [hydroxychloroquine] |  |  |  |  |  |  |  |  |  |  |  | toxic effects on cells (HUH7 cells): toxic effects on cells; effect on virus replication [2]: did show some effects
COC(=O)C[C@](O)(CCCC(C)(C)O)C(=O)O[C@@H]1C(OC)=C[C@]23CCCN2CCc2cc4c(cc2[C@H]13)OCO4 [Homoharringtonine] | 0.5068 | 0.5068 | 1.44% | 0.01441 | 0.6794 | 0.0133 |  |  |  |  |  | 
Cc1ccc(NC(=O)c2ccc(CN3CCN(C)CC3)cc2)cc1Nc1nc(-c2cccnc2)cs1 [Masitinib (AB1010), Masitinib] | 1.308 | 1.308 | 13.4% | 0.1339 | 0.7156 | 0.03917 |  |  |  |  |  | 
CC(C)c1nc(CN(C)C(=O)N[C@H](C(=O)N[C@@H](Cc2ccccc2)C[C@H](O)[C@H](Cc2ccccc2)NC(=O)OCc2cncs2)C(C)C)cs1 [Ritonavir] |  |  |  |  |  |  |  |  |  |  |  | effect on virus replication [1]: failed to halt replication of SARS-CoV-2; effect on virus replication [2]: failed to halt replication of SARS-CoV-2
C[C@@H]1C[C@H]2[C@@H]3CCC4=CC(=O)C=C[C@]4(C)[C@@]3(F)[C@@H](O)C[C@]2(C)[C@@]1(O)C(=O)CO [dexamethasone] |  |  |  |  |  |  |  |  |  |  |  | effect on virus replication [1]: did not demonstrate any effect on viral replication; effect on virus replication [2]: did not demonstrate any effect on viral replication
C=CC(=O)Nc1cccc(Nc2nc(Nc3ccc(N4CCN(C(C)=O)CC4)cc3OC)ncc2C(F)(F)F)c1 [CO-1686 (AVL-301)] | 0.5096 |  |  |  |  |  | 0.8551 | 327566 Counts per second | 319872 Counts per second | 324163 Counts per second | 3% | Mean relative luminescence (n=4) [1, 4]: 0.02339
Cl.Fc1ccc([C@@H]2CCNC[C@H]2COc2ccc3c(c2)OCO3)cc1 [Paroxetine HCl] | 1.088 |  |  |  |  |  | 0.9732 | 360169 Counts per second | 368856 Counts per second | 369849 Counts per second | 12% | Mean relative luminescence (n=4) [1, 4]: 0.09097
CSc1nc2cc(Cl)c(Oc3cccc(Cl)c3Cl)cc2[nH]1 [Triclabendazole] | 0.62 |  | 9.74% |  |  |  | 0.8923 | 335937 Counts per second | 339544 Counts per second | 336143 Counts per second | 12% | 
CCCCCOc1ccc(-c2ccc(-c3ccc(C(=O)N[C@H]4C[C@@H](O)[C@@H](O)NC(=O)[C@@H]5[C@@H](O)[C@@H](C)CN5C(=O)[C@H]([C@@H](C)O)NC(=O)[C@H]([C@H](O)[C@@H](O)c5ccc(O)cc5)NC(=O)[C@@H]5C[C@@H](O)CN5C(=O)[C@H]([C@@H](C)O)NC4=O)cc3)cc2)cc1 [Anidulafungin] ({pTerphenylCO(4''-OnC5H11)}-[Orn(4R-OH,5R-OH)]T[Hyp][hTyr(3S-OH,4S-OH)]T[Pro(3S-OH,4S-Me)]; lactam 1-C) | 0.5453 |  | 2.32% |  |  |  | 0.974 | 365229 Counts per second | 366012 Counts per second | 364202 Counts per second | 4.57% | Reads Counts per second (read 2) (recombinant NLuc; recombinant NLuc, second read): 376574 Counts per second
O=C1CCc2ccc(OCCCCN3CCN(c4cccc(Cl)c4Cl)CC3)cc2N1 [Aripiprazole] | 0.6278 | 0.6278 | 10.1% | 0.1007 | 0.7416 | 0.008694 |  |  |  |  |  | 
CC(C)(Sc1cc(C(C)(C)C)c(O)c(C(C)(C)C)c1)Sc1cc(C(C)(C)C)c(O)c(C(C)(C)C)c1 [Probucol] | 0.7536 |  | 2.23% |  |  |  | 0.9023 | 337686 Counts per second | 339611 Counts per second | 341300 Counts per second | 5% | 
CC[C@@H](C(=O)[C@@H](C)[C@@H](O)[C@H](C)[C@@H]1O[C@@H]([C@@H](CC)C(=O)O)CC[C@@H]1C)[C@H]1O[C@]2(C=C[C@@H](O)[C@]3(CC[C@@](C)([C@H]4CC[C@](O)(CC)[C@H](C)O4)O3)O2)[C@H](C)C[C@@H]1C [Salinomycin] | 0.6121 |  | 1.89% |  |  |  | 0.9779 | 365050 Counts per second | 367850 Counts per second | 373342 Counts per second | 3.75% | 
